Read-outs that look alike come from different tables or passages of the source.
Columns and labels:
[1] = test system: Acute Bacterial Skin and Skin Structure Infections (ABSSSI); experiment: Phase 2b clinical trial in ABSSSI: Investigators' Global Assessment of Cure; type: in vivo, human; conditions: for Response Rate, Investigators' Global Assessment of Cure: ITT; for Response Rate, Investigators' Global Assessment of Cure / Percent Clinical Cure (ITT): delafloxacin 300 mg BID, Zyvox 600 mg BID, vancomycin 1,000 to 2,000 mg BID, comparators with and without aztreonam; for Percent Clinical Cure (ITT): Investigators' Global Assessment of Cure; for Clinical activity with increased patient weight: Phase 2b data by weight/BMI
Excerpt: (§1) The term “cure” or “Investigators' Global Assessment of Cure” as used herein refers to complete resolution of all signs and symptoms at the follow-up visit.

[2] = test system: Confirmed MRSA; experiment: Phase 2b clinical trial: Investigators' Global Assessment of Cure in Patients with Confirmed MRSA; type: in vivo, human; conditions: comparators with and without aztreonam; for Response Rate, Investigators' Global Assessment of Cure in Patients with Confirmed MRSA: MITT; for Percent Clinical Cure (MITT): patients with confirmed MRSA
Excerpt: as §1

[3] = test system: Acute Bacterial Skin and Skin Structure Infections (ABSSSI); experiment: Phase 2b clinical trial: Objective Endpoint at 48 to 72 hours (cessation of lesion spread and absence or resolution of fever); type: in vivo, human; conditions: comparators with and without aztreonam; for Percent Cessation of Spread of Erythema and Absence of Fever at 48 to 72 Hours: secondary endpoint
[4] = Phase 2b clinical trial: adverse events; conditions: for Overall adverse event rates: across the Phase 2b study; for Specific limiting toxicity: human, in vivo
[5] = test system: Acute Bacterial Skin and Skin Structure Infections (ABSSSI); experiment: Phase 2b clinical trial: reduction in the size of the lesion at 48 to 72 hours; type: in vivo, human
[6] = human, in vivo

Row | SMILES | Response Rate, Investigators' Global Assessment of Cure [1] | Percent Clinical Cure (ITT) [1] [%] | Clinical activity with increased patient weight [1] | Response Rate, Investigators' Global Assessment of Cure in Patients with Confirmed MRSA [2] | Percent Clinical Cure (MITT) [2] [%] | Response Rate, Objective Endpoint at 48 to 72 hours [3] | Percent Cessation of Spread of Erythema and Absence of Fever at 48 to 72 Hours [3] [%] | Leading adverse event ([4]; Phase 2b study) | Most common specific adverse event ([4]; Phase 2b study) | Overall adverse event rates [4] [%] | Specific limiting toxicity [4] | also measured
1 | CC(=O)NC[C@H]1CN(c2ccc(N3CCOCC3)c(F)c2)C(=O)O1 [Zyvox, N-[[(5S)-3-[3-fluoro-4-(4-morpholinyl)phenyl]-2-oxo-5-oxazolidinyl]methyl]acetamide] | 50/77 | 84.9 | decline | 21/34 | 61.8 | 56/75 | 74.7 | GI disorder | nausea | 72 | bone marrow | Percent Cessation of Spread of Erythema and Absence of Fever at 48 to 72 Hours ([3]; listed as linezolid): ~75%; Subjects who experienced thrombocytopenia ([4]; Phase 2b study arm): two
2 | Nc1nc(-n2cc(C(=O)O)c(=O)c3cc(F)c(N4CC(O)C4)c(Cl)c32)c(F)cc1F [Delafloxacin, 1-(6-amino-3,5-difluoro-2-pyridinyl)-8-chloro-6-fluoro-1,4-dihydro-7-(3-hydroxy-1-azetidinyl)-4-oxo-3-quinolinecarboxylic acid] | 57/81 | 70.4 | maintained | 19/29 | 65.56 | 61/78 | 78.2 | gastrointestinal, or GI, disorder | mild to moderate diarrhea | 74 | no specific limiting toxicity | Efficacy compared to vancomycin, primary endpoint Investigators' Global Assessment of Cure ([1]; 95% Confidence Interval −30.3%, −2.3%, p=0.031): statistically significant efficacy advantage; Percent Cessation of Spread of Erythema and Absence of Fever at 48 to 72 Hours ([3]; listed as delafloxacin): approximately 78%; Percentage of patients with a 30% or greater reduction in the size of the lesion, versus comparators [5]: greater percentage of patients; Evidence for toxicities common in the fluoroquinolone class (phototoxicity, elevated liver enzymes, dysglycemia, QT prolongation) ([4]; Phase 2b study): did not demonstrate evidence
3 | CN[C@H](CC(C)C)C(=O)N[C@H]1C(=O)N[C@@H](CC(N)=O)C(=O)N[C@H]2C(=O)N[C@H]3C(=O)N[C@H](C(=O)N[C@H](C(=O)O)c4cc(O)cc(O)c4-c4cc3ccc4O)[C@H](O)c3ccc(c(Cl)c3)Oc3cc2cc(c3O[C@@H]2O[C@H](CO)[C@@H](O)[C@H](O)[C@H]2O[C@H]2C[C@](C)(N)[C@H](O)[C@H](C)O2)Oc2ccc(cc2Cl)[C@H]1O [Vancomycin] | 53/98 | 54.1 | decline | 21/32 | 65.6 | 69/95 | 72.6 | disorders of the skin | pruritus | 65 |  | Percent Cessation of Spread of Erythema and Absence of Fever at 48 to 72 Hours ([3]; listed as vancomycin): ~73%; Specific limiting toxicity [6]: kidney; Patients who experienced renal issues ([4]; Phase 2b study arm): three; Renal failures ([4]; Phase 2b study arm, among the renal issues): two

From patent US12558349B2, “Methods of treating infections in overweight and obese patients using antibiotics” (MELINTA SUBSIDIARY CORP., priority 2013, dated 2026)
